# Test results as given in PubChem BioAssay (NCI).
#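 Cells were grown in 96-well plates and exposed to each compound for 48 hours at five concentrations; endpoints were interpolated linearly between bracketing concentrations, or set to the highest concentration if not reached. GI50 = concentration required for 50% inhibition of growth. TGI denotes the concentration required for complete inhibition of growth.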
# Key:
# Test in all cases: NCI tumour cell line growth inhibition, 48 h
# IGROV1 ovarian = system: IGROV1 ovarian
# A549 NSCLC = system: A549 NSCLC
# M14 melanoma = system: M14 melanoma
# SK-MEL-5 melanoma = system: SK-MEL-5 melanoma
# HCT-116 colon = system: HCT-116 colon
# SNB-75 CNS = system: SNB-75 CNS
# UACC-62 melanoma = system: UACC-62 melanoma
# NCI-H23 lung = system: NCI-H23 lung
Structure (SMILES),TGI (IGROV1 ovarian) [µM],TGI (A549 NSCLC) [µM],TGI (M14 melanoma) [µM],TGI (SK-MEL-5 melanoma) [µM],TGI (HCT-116 colon) [µM],TGI (SNB-75 CNS) [µM],TGI (UACC-62 melanoma) [µM],TGI (NCI-H23 lung) [µM],GI50 (IGROV1 ovarian) [µM],GI50 (A549 NSCLC) [µM],GI50 (M14 melanoma) [µM],GI50 (SK-MEL-5 melanoma) [µM],GI50 (HCT-116 colon) [µM],GI50 (SNB-75 CNS) [µM],GI50 (UACC-62 melanoma) [µM],GI50 (NCI-H23 lung) [µM]
COc1ccc2c(c1)[n+](=O)c(C(=O)C/C(=N/OCCCc1ccccc1)C(=O)NC13CC4CC(CC(C4)C1)C3)c(C)n2[O-],> 100,> 100,> 100,> 100,> 100,> 100,> 100,> 100,,,,,,,,
COC(=O)Nc1nc2ccc(Oc3ccc(NC(=O)Nc4cc(C(F)(F)F)ccc4F)cc3)cc2s1,> 25,> 25,> 25,> 25,> 25,> 23.8,> 25,> 25,> 25,15,2.83,> 25,8.8,6.76,3.9,9.25
CC1(C)OC2=C(CC1Br)C(=O)C(=O)c1ccccc12 (centres undefined),4.12,4.87,3.64,2.89,3.41,3.26,3.98,3.75,2.18,2.41,1.9,1.53,1.7,1.82,2.08,1.66
Cc1cc(-c2cnn3c(NCC4CC(C)(O)C4)cc(Oc4cccnc4)nc23)ccc1C(=O)NC1CC1 (centres undefined),> 100,> 100,> 100,> 100,> 100,> 100,> 100,> 100,0.992,3.49,1.44,2.22,0.0858,2.11,2.67,> 100
O=C(O)/C=C(\c1nc2ccc([N+](=O)[O-])cc2[nH]1)c1cc(Cl)ccc1O,39.5,14.1,12,4.06,7.03,27.6,5.41,19.6,2.92,3.07,2.78,1.1,2.35,3.14,1.45,1.96
CC(C)(CO)N1CCN(C(=S)Nc2ccccc2)CC1,> 100,> 100,> 100,> 100,> 100,> 100,> 100,> 100,,,,,,,,
Nc1cccc(S(=O)(=O)NCC(=O)O)c1,> 100,> 100,> 100,> 100,> 100,> 100,> 100,> 100,,,,,,,,
O=C1c2cccc([N+](=O)[O-])c2C(=O)N1c1ncn[nH]1,> 100,> 100,> 100,> 100,> 100,64.6,> 100,> 100,,,,,,,,
O=[N+]([O-])c1ccc(C=NC2CCCCC2)cc1,> 100,> 100,> 100,> 100,> 100,> 100,> 100,> 100,,,,,,,,
